The source of these data is patent US11197856B2, “Bicyclic compounds and methods for their use in treating autism” (priority 2013, dated 2021).

Each structure is given as a SMILES string.

One experiment has as its system p-Akt. Put plainly: Phospho-flow cytometry of lymphocytes, p-Akt. In kind it is in vivo. As to conditions: fmr1-knockout mice; 15, 30, 60 and 240 minutes after a single treatment. The text has this:
Lymphocytes are isolated from five fmr1-knockout and five wild-type titter mate control mice, per study time after injection with cG-2-AllylP. Lymphocytes are examined for activation of two signaling effectors, p-ERK1/2 and p-Akt using phosphorylation status as a measure of activation by flow cytometry (phospho-flow).
2. Flow cytometry total and phosphorylated AKT in lymphocytes
In general terms: A flow cytometer gives signals particle by particle.

The test system of another experiment is Krox24. Put plainly: Krox24 immunohistochemical staining of hippocampus. The class given is in vivo, male Wistar rats. The conditions noted are these: CA1-2 regions; vs vehicle. How it is done:
Aged rats (male Wistar rats, 18-20 months old) were divided into four groups: two vehicle-treated (groups 1 and 3) and two G-2-AllylP treated (groups 2 and 4) (all groups n=6-8). Cyclic G-2-AllylP was synthesised by the Department of Medicinal Chemistry and dissolved in normal saline before the treatment. On day 1 a single dose of cyclic G-2-AllylP was given centrally (20 ng/animal, i.c.v.) to the animals in groups 2 and 4; saline was administered to groups 1 and 3. The memory tests using Novel Object Recognition Test started either on day 3 (groups 1 and 2) or 24 (groups 3 and 4) after the treatment. On the completion of the NORT, the rats were killed with an overdose of sodium pentobarbital and were perfused transcardially with normal saline followed by 10% formalin. Tissues collected at day 7 in groups 1 and 2, and at day 28 from groups 3 and 4. The brains were kept in the same fixative for a minimum of 2 days before being processed using a standard paraffin embedding procedure. Briefly, small blocks (10×10×3 mm) of tissue were fixed for up to 24 hrs. The blocks were then infiltrated and embedded with paraffin and cut in ribbons and mounted on slides. Slides were then stored until immunostaining was commenced. Synaptogenesis in brain tissue was examined using immunohistochemical staining.
The neuronal transcript factor Krox24 staining is used as a marker for neuronal plasticity. […]

Experiment [1] has as its system layer 5 pyramidal neurons in sections of motor cortex. Put plainly: Golgi staining of cortical dendritic spines. In kind it is in vivo, mice. As to conditions: knockout neurons; P28. As for the experimental part: Samples (<1 cm) from P28 mice are fixed in 10% formalin and 3% potassium bichromate for 24 hours. Tissue is then transferred into 2% silver nitrate for 2 days in the dark at room temperature. Sections from these samples are then cut at 30 μm thickness into distilled water. Sections corresponding to motor cortex are mounted onto slides, air dried for 10 minutes, and then dehydrated through sequential rinses of 93% alcohol, 100% alcohol, and xylene, and then sealed with a coverslip. Images re acquired at 10× (whole cell) and 100× (spine imaging) using a Zeiss Pascal 3 Exciter confocal microscope.
We use Golgi staining to label neurons sparsely and distinctly, and applied high-resolution confocal imaging to measure dendritic spine density and morphology in the labelled cells, restricting analysis to layer 5 pyramidal neurons in sections of motor cortex from critical period mice (P28).
While low-magnification imaging clearly delineates the extent of the dendrites of the pyramidal cells we use higher magnifications to count synaptic contacts and determine the morphological class of each spine. We classify spines as either large and bulbous (“mushroom”, M), short and stubby (“stubby”, S), short and thin (“thin”, T) or filopodia (F).

For another experiment, the system named is adult MeCP2+/- mice. Put plainly: Ocular dominance (OD) plasticity, optical imaging of intrinsic signals. As to conditions: 4 days monocular deprivation. The class given is in vivo. How it is done:
Adult (>P60) wild type (SVEV or BL6) and MeCP2 (+/−) mutant females (BL6) are used for this experiment. The wild type control group is composed of both wild type littermates of MeCP2+/− females or wild type age matched SVEV females. For monocular deprivation, animals are anesthetized with Avertin (0.016 ml/g) and the eyelids of one eye is sutured for 4 days. Prior to imaging, the suture is removed and the deprived eye re-opened. Only animals in which the deprivation sutures are intact and the condition of the deprived eye appears healthy are used for the imaging session. For cG-2-AllylP signaling activation, a solution containing cG-2-AllylP is injected intra-peritoneally (IP) daily for the entire period of deprivation. For the imaging sessions mice are anesthetized with urethane (1.3 g/kg; 20% of the full dosage is administered IP each 20-minutes up to the final dosage, 0.02 ml of cloroprothixene 1% is also injected together with the first administration). The skull is exposed and a custom-made plate is glued on the head to minimize movement. The skull is thinned over VI with a dremel drill and covered with an agarose solution in saline (1.3%) and a glass coverslip. During the imaging session, the animal is constantly oxygenated, its temperature maintained with a heating blanket and the eyes periodically treated with silicone oil; physiological conditions are constantly monitored. […]

On to `C=CC[C@]12CCCN1C(=O)CNC2=O` [cG-2-AllylP, (8aS)-Allyl-hexahydropyrrolo[1,2-a]pyrazine-1,4-dione], for which the “mean fluorescent intensity (MFI) for p-AKT” value with p-Akt is “decreases at all time points”. Moreover, the “density of the Krox24 staining” value in the experiment with Krox24 is on record as “trend towards the increased density”. The “density of spines per unit branch” value in experiment [1] is recorded as “largely ameliorated in the knockout with treatment”. Further, the OD plasticity entry with adult MeCP2+/- mice is “reduces the OD plasticity”.
